Columns and labels:
[1] = Sourness test, panelists detect presence of sourness by yes or no rating; set-up: species or system human
Method: (§1) A standard sweetness test method was employed. Briefly, training sample solutions made of sucrose in water at 1-5% concentration (Brix) at 1% increments were prepared. Reb-E test samples were made of Reb-E in water at 20-60 ppm (parts per million). Panelists were trained to recognize and differentiate between each training solution. Three test solutions of known sucrose concentrations were given to panelists to ensure equal training and to establish a baseline.
(§2) Test solutions were randomized using a random number generator. Two sets of tests were generated for each panelist. Saltine crackers were provided along with water for wash out between test solutions. Each panelist rated each of the solutions according to sweetness (in Brix) and sourness (yes or no). The intensity of each attribute was also collected.
The ability of Reb-E to overcome sourness was also measured, and compared to sucrose. Panelists were asked to detect the presence of sourness by a yes or no rating.

[2] = Standard sweetness test, panelists rate sweetness (Brix) of solutions in water; set-up: species or system human; settings: for Brix (average): average of all panelists
Method: as §1, §2

[3] = Reb-E 20 PPM + 0.6% citric acid
[4] = Reb-E 40 PPM + 0.6% citric acid
[5] = Reb-E 50 PPM + 0.6% citric acid
[6] = Reb-E 60 PPM + 0.6% citric acid
[7] = sucrose 10 ×1000 PPM (1%) + 0.6% citric acid
[8] = sucrose 20 ×1000 PPM (2%) + 0.6% citric acid
[9] = sucrose 30 ×1000 PPM (3%) + 0.6% citric acid
[10] = sucrose 40 ×1000 PPM (4%) + 0.6% citric acid

Q: Which results are given for `C=C1C[C@@]23CCC4[C@](C)(C(=O)OC5OC(CO)C(O)C(O)C5OC5OC(CO)C(O)C(O)C5O)CCC[C@@]4(C)[C@@H]2CCC1(OC1OC(CO)C(O)C(O)C1OC1OC(CO)C(O)C(O)C1O)C3` (stereo partly drawn) [Reb-E, 13-[(2-O-β-D-glucopyranosyl-β-D-glucopyranosyl)oxy] ent-kaur-16-en-19-oic acid-(2-O-β-D-glucopyranosyl-β-D-glucopyranosyl) ester]?
A: Sourness detected: No (number of ratings) [1, 3]: 2; Sourness detected: Yes (number of ratings) [1, 3]: 10; Sourness detected: No (number of ratings) [1, 4]: 2; Sourness detected: Yes (number of ratings) [1, 4]: 4; Sourness detected: No (number of ratings) [1, 5]: 1; Sourness detected: Yes (number of ratings) [1, 5]: 11; Sourness detected: No (number of ratings) [1, 6]: 0; Sourness detected: Yes (number of ratings) [1, 6]: 6; Effectiveness in covering the sourness compared to sucrose solutions ([1]; within the tested range): not as effective in covering the sourness as compared to sucrose solutions; Correlation between sweetness and concentration (FIG. 1) ([2]; Reb-E 20-60 ppm): near linear correlation; Brix (average) ([2]; Reb-E 20 PPM in water + 0.6% citric acid): 1.2 Brix; Brix (average) ([2]; Reb-E 40 PPM in water + 0.6% citric acid): 2.1 Brix; Brix (average) ([2]; Reb-E 50 PPM in water + 0.6% citric acid): 2.2 Brix; Brix (average) ([2]; Reb-E 60 PPM in water + 0.6% citric acid): 2.6 Brix

Q: What does the source list for `OC[C@H]1O[C@@](CO)(O[C@H]2O[C@H](CO)[C@@H](O)[C@H](O)[C@H]2O)[C@@H](O)[C@@H]1O` [Sucrose, sucrose, reference compound]?
A: Sourness detected: No (number of ratings) [1, 7]: 4; Sourness detected: Yes (number of ratings) [1, 7]: 8; Sourness detected: No (number of ratings) [1, 8]: 2; Sourness detected: Yes (number of ratings) [1, 8]: 4; Sourness detected: No (number of ratings) [1, 9]: 5; Sourness detected: Yes (number of ratings) [1, 9]: 1; Sourness detected: No (number of ratings) [1, 10]: 2; Sourness detected: Yes (number of ratings) [1, 10]: 4; Brix (average) ([2]; sucrose 10 ×1000 PPM (1%) in water + 0.6% citric acid): 1.3 Brix; Brix (average) ([2]; sucrose 20 ×1000 PPM (2%) in water + 0.6% citric acid): 2.6 Brix; Brix (average) ([2]; sucrose 30 ×1000 PPM (3%) in water + 0.6% citric acid): 3.4 Brix; Brix (average) ([2]; sucrose 40 ×1000 PPM (4%) in water + 0.6% citric acid): 5.2 Brix
